Work on `CNC(=O)[C@H]1O[C@@H](n2cnc3c(NCc4cc(Cl)ccc4OCC4OC(O)C(O)C(O)C4O)ncnc32)[C@H](O)[C@@H]1N` (stereo partly drawn) [Example 2, (2S,3S,4R,5R)3-Amino-5-{6-[5-chloro-2-(3,4,5,6-tetrahydroxytetrahydropyran-2-ylmethoxy)benzylamino]purin-9-yl}-4-hydroxytetrahydrofuran-2-carboxylic acid methylamide] yielded a melting point of 212 to 218 °C. `CNC(=O)[C@H]1O[C@@H](n2cnc3c(NCc4cc(Cl)ccc4OCCN4CCOCC4)ncnc32)[C@H](O)[C@@H]1N` [Example 4, (2S,3S,4R,5R)3-Amino-5-{6-[5-chloro-2-(2-morpholin-4-ylethoxy)benzylamino]-purin-9-yl}-4-hydroxytetrahydrofuran-2-carboxylic acid methylamide] gave a melting point of 99 to 108 °C. Molecule `CNC(=O)[C@H]1O[C@@H](n2cnc3c(NCc4cc(Cl)ccc4OCC4CCC4)ncnc32)[C@H](O)[C@@H]1N` [Example 5, (2S,3S,4R,5R)3-Amino-5-[6-(5-chloro-2-cyclobutylmethoxybenzylamino)-purin-9-yl]-4-hydroxytetrahydrofuran-2-carboxylic acid methylamide] has a melting point of 107 to 117 °C. Work on `CNC(=O)[C@H]1O[C@@H](n2cnc3c(NCc4cc(Cl)ccc4OCc4cccc(OC)c4)ncnc32)[C@H](O)[C@@H]1N` [Example 6, (2S,3S,4R,5R)3-Amino-5-{6-[5-chloro-2-(3-methoxy-benzyloxy)-benzylamino]-purin-9-yl}-4-hydroxytetrahydrofuran-2-carboxylic acid methylamide] yielded a melting point of 102 to 108 °C. With `CNC(=O)[C@H]1O[C@@H](n2cnc3c(NCc4cc(Cl)ccc4OCc4cc(OC)ccc4OC)ncnc32)[C@H](O)[C@@H]1N` [Example 7, (2S,3S,4R,5R)3-Amino-5-{6-[5-chloro-2-(2,5-dimethoxy-benzyloxy)-benzylamino]-purin-9-yl}-4-hydroxytetrahydrofuran-2-carboxylic acid methylamide] the melting point was 112 to 115 °C. Work on `CNC(=O)[C@H]1O[C@@H](n2cnc3c(NCc4cc(Cl)ccc4OCc4cccc(Cl)c4)ncnc32)[C@H](O)[C@@H]1N` [Example 8, (2S,3S,4R,5R)3-Amino-5-{6-[5-chloro-2-(3-chloro-benzyloxy)-benzylamino]-purin-9-yl}-4-hydroxytetrahydrofuran-2-carboxylic acid methylamide] yielded a melting point of 85 to 90 °C. With `CNC(=O)[C@H]1O[C@@H](n2cnc3c(NCc4cc(Cl)ccc4OCc4ccc(Cl)cc4)ncnc32)[C@H](O)[C@@H]1N` [Example 9, (2S,3S,4R,5R)3Amino-5-{6-[5-chloro-2-(4-chloro-benzyloxy)-benzylamino]-purin-9-yl}-4-hydroxytetrahydrofuran-2-carboxylic acid methylamide] the melting point was 88 to 92 °C. Molecule `CNC(=O)[C@H]1O[C@@H](n2cnc3c(NCc4cc(Cl)ccc4OCc4ccccc4Cl)ncnc32)[C@H](O)[C@@H]1N` [Example 10, (2S,3S,4R,5R)3-Amino-5-{6-[5-chloro-2-(2-chloro-benzyloxy)-benzylamino]-purin-9-yl}-4-hydroxytetrahydrofuran-2-carboxylic acid methylamide] has a melting point of 88 to 92 °C. Work on `CNC(=O)[C@H]1O[C@@H](n2cnc3c(NCc4cc(Cl)ccc4OCC4CCOC4)ncnc32)[C@H](O)[C@@H]1N` (stereo partly drawn) [Example 11, (2S,3S,4R,5R)3-Amino-5-{6-[5-chloro-2-(tetrahydrofuran-3-ylmethoxy)-benzylamino]-purin-9yl}-4-hydroxytetrahydrofuran-2-carboxylic acid methylamide] yielded a melting point of 114 to 118 °C. `CNC(=O)[C@H]1O[C@@H](n2cnc3c(NCc4cc(Cl)ccc4OCc4ccc(C)cc4)ncnc32)[C@H](O)[C@@H]1N` [Example 12, (2S,3S,4R,5R)3-Amino-5-{6-[5-chloro-2-(4-methyl-benzyloxy)-benzylamino]-purin-9-yl}-4-hydroxytetrahydrofuran-2-carboxylic acid methylamide] showed a melting point of 82 to 86 °C. `CNC(=O)[C@H]1O[C@@H](n2cnc3c(NCc4cc(Cl)ccc4OCc4ccccc4C)ncnc32)[C@H](O)[C@@H]1N` [Example 13, (2S,3S,4R,5R)3-Amino-5-{6-[5-chloro-2-(2-methyl-benzyloxy)-benzylamino]-purin-9-yl}-4-hydroxytetrahydrofuran-2-carboxylic acid methylamide] gave a melting point of 76 to 80 °C. Work on `CNC(=O)[C@H]1O[C@@H](n2cnc3c(NCc4cc(Cl)ccc4OCc4cccc(C)c4)ncnc32)[C@H](O)[C@@H]1N` [Example 14, (2S,3S,4R,5R)3-Amino-5-{6-[5-chloro-2-(3-methyl-benzyloxy)-benzylamino]-purin-9-yl}-4-hydroxytetrahydrofuran-2-carboxylic acid methylamide] yielded a melting point of 92 to 97 °C. With `CNC(=O)[C@H]1O[C@@H](n2cnc3c(NCc4cc(Cl)ccc4OCc4ccccc4OC)ncnc32)[C@H](O)[C@@H]1N` [Example 15, (2S,3S,4R,5R)3-Amino-5-{6-[5-chloro-2-(2-methoxybenzyloxy)benzylamino]-purin-9-yl}-4-hydroxytetrahydrofuran-2-carboxylic acid methylamide] the melting point was 102 to 123 °C. `CNC(=O)[C@H]1O[C@@H](n2cnc3c(NCc4cc(Cl)ccc4OCc4ccoc4)ncnc32)[C@H](O)[C@@H]1N` [Example 16, (2S,3S,4R,5R)3-Amino-5-{6-[5-chloro-2-(furan-3-ylmethoxy)benzylamino]-purin-9-yl}-4-hydroxytetrahydrofuran-2carboxylic acid methylamide] gave a melting point of 93 to 97 °C. With `CNC(=O)[C@H]1O[C@@H](n2cnc3c(NCc4cc(Cl)ccc4OCC4CCCC4)ncnc32)[C@H](O)[C@@H]1N` [Example 18, (2S,3S,4R,5R)3-Amino-5-[6-(5-chloro-2-cyclopentylmethoxy-benzylamino)-purin-9-yl]-4-hydroxytetrahydrofuran-2-carboxylic acid methylamide] the melting point was 110.6 to 116.2 °C. With `CNC(=O)[C@H]1O[C@@H](n2cnc3c(NCc4cc(Cl)ccc4OCC4CCOC4)ncnc32)[C@H](O)[C@@H]1N` (stereo partly drawn) [Example 20, (2S,3S,4R,5R)3-Amino-5-{6-[5-chloro-2-(tetrahydro-furan-3-ylmethoxy)-benzylamino]-purin-9-yl}-4-hydroxy-tetrahydro-furan-2-carboxylic acid methylamide] the melting point was 132 to 161 °C. With `CNC(=O)[C@H]1O[C@@H](n2cnc3c(NCc4cc(Cl)ccc4OCc4ccco4)ncnc32)[C@H](O)[C@@H]1N` [Example 22, (2S,3S,4R,5R)3-Amino-5-{6-(5-chloro-2-(furan-2-ylmethoxy)benzylamino]purin-9-yl}-4-hydroxytetrahydrofuran-2-carboxylic acid methylamide] the melting point was 187 to 192 °C. With `CNC(=O)[C@H]1O[C@@H](n2cnc3c(NCc4cc(Cl)ccc4OCc4cc(C)oc4C)ncnc32)[C@H](O)[C@@H]1N` [Example 24, (2S,3S,4R,5R)3-Amino-5-{6-[5-chloro-2-(2,5-dimethylfuran-3-ylmethoxy)benzylamino]purin-9-yl}-4-hydroxytetrahydrofuran-2-carboxylic acid methylamide] the melting point was 85 to 88 °C. In the case of `CNC(=O)[C@H]1O[C@@H](n2cnc3c(NCc4cc(Cl)ccc4OCc4cccnc4)ncnc32)[C@H](O)[C@@H]1N` [Example 25, (2S,3S,4R,5R)3-Amino-5-{6-[5-chloro-2-(pyridin-3-ylmethoxy)benzylamino]purin-9-yl}-4-hydroxytetrahydrofuran-2-carboxylic acid methylamide], the melting point is reported as 200 to 218 °C. `CNC(=O)[C@H]1O[C@@H](n2cnc3c(NCc4cc(Cl)ccc4OCc4ccc(CN(C)C)o4)ncnc32)[C@H](O)[C@@H]1N` [Example 26, (2S,3S,4R,5R)3-Amino-5-{6-[5-chloro-2-(5-dimethylaminomethylfuran-2-ylmethoxy)benzylamino]purin-9-yl}-4-hydroxytetrahydrofuran-2-carboxylic acid methylamide] showed a melting point of 78 to 81 °C. `CNC(=O)[C@H]1O[C@@H](n2cnc3c(NCc4cc(Cl)ccc4OCc4nccs4)ncnc32)[C@H](O)[C@@H]1N` [Example 27, (2S,3S,4R,5R)3-Amino-5-{6-[5-chloro-2-(thiazol-2-ylmethoxy)-benzylamino]-purin-9-yl}-4-hydroxy-tetrahydro-furan-2-carboxylic acid methylamide] showed a melting point of 208 to 209 °C. `CNC(=O)[C@H]1O[C@@H](n2cnc3c(NCc4cc(Cl)ccc4OCc4nc5ccccc5s4)ncnc32)[C@H](O)[C@@H]1N` [Example 28, (2S,3S,4R,5R)3-Amino-5-{6-[2-(benzothiazol-2-ylmethoxy)-5-chlorobenzylamino]purin-9-yl}-4-hydroxytetrahydrofuran-2-carboxylic acid methylamide] gave a melting point of 127 to 129 °C. `CNC(=O)[C@H]1O[C@@H](n2cnc3c(NCc4cc(Cl)ccc4OCc4cc5ccccc5o4)ncnc32)[C@H](O)[C@@H]1N` [Example 29, (2S,3S,4R,5R)3-Amino-5-{6-[2-(benzofuran-2-ylmethoxy)-5-chlorobenzylamino]purin-9-yl}-4-hydroxytetrahydrofuran-2-carboxylic acid methylamide] gave a melting point of 127 to 130 °C. In the case of `CNC(=O)[C@H]1O[C@@H](n2cnc3c(NCc4cc(Cl)ccc4OCc4ccns4)ncnc32)[C@H](O)[C@@H]1N` [Example 30, (2S,3S,4R,5R)3-Amino-5-{6-[5-chloro-2-(isothiazol-5-ylmethoxy)benzylamino]purin-9-yl}-4-hydroxytetrahydrofuran-2-carboxylic acid methylamide], the melting point is reported as 180 to 183 °C. With `CNC(=O)[C@H]1O[C@@H](n2cnc3c(NCc4cc(Cl)ccc4OCc4cccs4)ncnc32)[C@H](O)[C@@H]1N` [Example 31, (2S,3S,4R,5R)3-Amino-5-{6-[5-chloro-2-(thiophen-2-ylmethoxy)benzylamino]purin-9-yl}-4-hydroxytetrahydrofuran-2-carboxylic acid methylamide] the melting point was 135 to 141 °C. `CNC(=O)[C@H]1O[C@@H](n2cnc3c(NCc4cc(Cl)ccc4OCc4ccc5ccccc5n4)ncnc32)[C@H](O)[C@@H]1N` [Example 32, (2S,3S,4R,5R)3-Amino-5-{6-[5-chloro-2-(quinolin-2-ylmethoxy)benzylamino]purin-9-yl}-4-hydroxytetrahydrofuran-2-carboxylic acid methylamide] gave a melting point of 130 to 134 °C.
